pIC50: −log10 of the molar value. Read-outs that look alike come from different tables or passages of the source.
How the values were obtained:
[1] = biological target: HsGGPPS (humanized geranylgeranyl pyrophosphate synthase) (Homo sapiens (Human), UniProt O95749); test: HsGGPPS enzyme inhibition test; type: biochemical
Method: The inhibitory activities of compounds TH-Z144 and TH-Z145 on GGPPS (geranylgeranyl pyrophosphate synthase) were tested by referring to the expression and purification method for HsGGPPS (humanized geranylgeranyl pyrophosphate synthase) in the reference (Szabo, C. M., et al., Inhibition of Geranylgeranyl Diphosphate Synthase by Bisphosphonates and Diphosphates: A Potential Route to New Bone Antiresorption and Antiparasitic Agents. Journal of Medicinal Chemistry, 2002. 45 (11): p. 2185-2196.) and the method for testing enzyme activity in the reference (Zhang, Y., et al., Lipophilic Bisphosphonates as Dual Farnesyl/Geranylgeranyl Diphosphate Synthase Inhibitors: An X-ray and NMR Investigation. Journal of the American Chemical Society, 2009. 131 (14): p. 5153-5162.) The data of the activity test were as follows: […]

[2] = system: anti-OVA IgM and IgG antibodies; test: OVA evaluation system: adjuvant activity in antibody titer in mice; type: in vivo; settings: GGPPS inhibitors 100 μg with OVA, right sole, Day 7 and Day 14
Method: OVA evaluation system was used to determine adjuvant activity in antibody titer.
Mice of C57B/6 strain were used. The mice in the experimental group were injected with the obtained mixture of each of the statins and OVA antigen through soles injection, with 20 μl for each mouse. The mice in the control group were injected with a 1:1 mixture of PBS or DMSO (10 μl) and 10 μl OVA antigen (PBS or DMSO is 10 μl, respectively, and the antigen is 10 μl) through soles injection, with 20 μl for each mouse. On Day 7 and Day 14 after immunization, blood was taken from the mice's orbits, with 100 μl was taken from each mouse. The obtained blood was left at 4° C. overnight, and centrifuged at 6000 rpm for 8 min. The supernatant serum was removed and the titers of anti-OVA IgM and IgG antibodies in the serum were determined.
Test of the OVA antibody titer: The OVA protein was diluted to a concentration of 2 μg/ml with a carbonate solution of pH 9.6, coated in a 96-well ELISA plate at 50 μl per well, and left at 4° C. overnight. The ELISA plate was washed five times with PBS containing 0.05% Tween 20, blocked with 1% BSA solution at 200 μl per well, and incubated at room temperature for 2 h. The ELISA plate was washed five times with PBST (Phosphate Buffered Saline with Tween), a 2-fold serial dilution of the mouse serum after immunized with OVA was added at 50 μl per well and incubated at room temperature for 2 h. After the ELISA plate was washed five times with PBST, HRP (horseradish peroxidase)-labeled goat-anti-mouse IgM or IgG antibody was added and incubated at room temperature for 45 min. The ELISA plate was washed five times with PBST, and a color developing solution of sodium citrate OPD (o-phenylenediamine) was added. After 10 min of color development in the dark, sulfuric acid was added to terminate the reaction. The reading was performed with ELIASA OD490. The maximum serum dilution factor, when the ratio of light absorptions of the experimental group to the control group was >2.0, was the titer of the anti-OVA antibody in the serum.
Each test compound was formulated at a concentration of 2 mg/ml and the concentration of OVA antigen was 2 mg/ml. Each compound was mixed with OVA at 1:1. Each C57B/6 mouse in the experimental group was injected with 100 μl of the mixture (containing 50 μl of the antigen and 50 μl of the compound) by intramuscular injection at the right thigh. On Day 7 and Day 14 after immunization, blood was taken from the mice's orbit, and 100 μl was taken for each mouse. The obtained blood was allowed to stand at 4° C. overnight, and centrifuged at 6000 rpm for 8 min. The supernatant serum was removed, and the titers of anti-OVA IgM and IgG antibodies in the serum were determined.
Method: each of the test compounds (the 10 bisphosphonates as described above) was mixed with the OVE antigen at 1:1, and the concentrations of bisphosphonic acid and OVA were both 10 mg/ml. Mice of C57B/6 strain were used. The mice in the experimental group were injected with the mixture of each of the test compounds and OVA antigen through soles injection, with 20 μl for each mouse, and wherein the amounts of OVA antigen and each of the test compounds were both 100 ug. The mice in the control group were injected with a 1:1 mixture of […] and 10 μl OVA antigen through sole injection. On Day 7 and Day 14 after immunization, blood was taken from the mice's orbits, and 100 μl was taken from each mouse.
The obtained blood was left at 4° C. overnight, and centrifuged at 6000 rpm for 8 min. The supernatant serum was removed, and the titers of anti-OVA IgM and IgG antibodies in the serum were determined.
Method: TH-Z144 and TH-Z145 were prepared at the concentration of 10 mg/ml, the concentration of OVA antigen was also 10 mg/ml, and the compound and the antigen were mixed at 1:1. Mice of C57B/6 strain were used.

[3] = system: PvGGPPS (geranylgeranyl pyrophosphate synthase from Plasmodium); test: In vitro PvGGPPS enzymatic activity assay; type: biochemical; settings: GPP and IPP substrates
Method: PvGGPPs with 6 consecutive His at the N-terminus was induced to express in vitro, collected, and purified by Ni column. In vitro PvGGPPs enzymatic activity assay was performed in a 96-well plate at 200 μl of solution per well. The buffer of the system was 25 mM HEPES, 2.5 mM MgCl2, pH 7.4. Using GPP and IPP as reaction substrates, a 360 nm continuous spectrophotometric detection was performed in a phosphate lyase system. ORIGIN 8.0 software was used to plot and fit.

[4] = biological target: humanized farnesyl pyrophosphate synthase (HsFPPS) (Homo sapiens (Human), UniProt P14324); test: In vitro HsFPPS enzyme activity assay; type: biochemical
Chain of humanized farnesyl pyrophosphate synthase (HsFPPS) (P14324 whole entry, looked up): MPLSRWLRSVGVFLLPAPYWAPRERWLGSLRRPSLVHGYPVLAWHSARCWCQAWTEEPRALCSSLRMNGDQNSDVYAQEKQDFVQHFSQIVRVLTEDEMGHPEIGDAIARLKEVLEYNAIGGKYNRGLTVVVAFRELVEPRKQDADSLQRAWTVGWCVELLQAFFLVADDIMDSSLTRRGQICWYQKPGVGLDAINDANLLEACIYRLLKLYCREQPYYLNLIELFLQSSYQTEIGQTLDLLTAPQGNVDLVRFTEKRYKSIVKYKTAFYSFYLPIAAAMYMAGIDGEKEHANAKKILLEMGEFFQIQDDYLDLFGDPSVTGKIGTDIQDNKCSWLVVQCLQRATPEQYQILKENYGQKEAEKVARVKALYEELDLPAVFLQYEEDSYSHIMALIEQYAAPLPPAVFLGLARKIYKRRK
Method: The measurement method is briefly described as follows: the expression of HsFPPS with 6 consecutive His at the N-terminus was induced in vitro, collected, and purified by Ni column. An in vitro HsFPPS enzyme activity assay was performed in a 96-well plate with 200 μl of solution per well. The buffer of the system was 25 mM HEPES, 2.5 mM MgCl2, pH 7.4. Using DMAPP and IPP as reaction substrates, the change of the UV value at a wavelength of 360 nm was monitored in real time in a phosphate lyase system. The ORIGIN 8.0 software was used to plot and fit. The IC50 values for the inhibition of FPPS by the TH-Z80 series of compounds were shown in the following table, in micromoles per liter (μM).
HsFPPs with 6 consecutive His at the N-terminus was induced to express in vitro, collected, and purified by Ni column. In vitro HsFPPs enzymatic activity assay was performed in a 96-well plate at 200 μl of solution per well. The buffer of the system was 25 mM HEPES, 2.5 mM MgCl2, pH 7.4. Using DMAPP and IPP as reaction substrates, the changes of UV at 360 nm were monitored in real-time in phosphate lyase system. ORIGIN 8.0 software was used to plot and fit.

[5] = system: MDA-MB-231 cells; test: MDA-MB-231 proliferation MTT test; type: cell-based, human; settings: 72 hours
Method: • Drug dissolution: […] The prepared bisphosphonate stock solution was diluted with DMEM complete medium. The maximum concentration was 1 mM. The dilution was performed serially in a ratio of 1:3.2 with a total of 11 concentration gradients; a. MDA-MB-231 cells were digested the day before. Centrifugation was performed at 1000 rmp for 3 min. The cells were counted. The cells were seeded into a 96-well plate at 3000 cells/well in a volume of 100 μl per well and cultured for 14-16 h. It should be noted that the cell count should be accurate, and the amount of cells seeded per well should be consistent. The cell suspension can be gently shaken in the intermittence of plating, or a row of cells were plated and the cell suspension was pipetted gently with a pipette. The speed of pipetting into the 96-well plate with a pipette should not be too fast or too slow, in order to avoid uneven distribution of cells in the plate, affecting the experiments; the wells at the fringe of the 96-well plate will evaporate slightly faster and the concentration of the solution will change slightly faster. Under normal situation, the central 60 wells should be selected for stimulation. Also, the pipetted liquid should be prevented from creating bubbles. b. After the cells had adhered, the liquid in the 96-well plate was pipetted out and discarded. […] c. 72 hours after the action of drug, the prepared MTT solution (immediately before use, a certain amount of MTT powder was weighed and dissolved in PBS at 5 mg/ml, under dark, filter with 0.22 filter membrane) was added directly to each well with 20 μl per well and continued to culture for 4 hours; d. The filter paper (which can be replaced by an absorbent paper) was laid, and the plate was inverted gently (be careful to prevent the crystal in the well from dropping). After the liquid in the wells was removed, 150 μl of DMSO was added to dissolve the crystals, and the mixture was shaken thoroughly with a shaker for a period of time just to dissolve the crystals. The absorbance (OD value) of each well was measured at 570 nm with ELIASA. The mean value of blank control was calculated as OD Blank. OD value for each well=OD measured-OD Blank. ODNT mean value was calculated. […] Mean and standard error were then calculated. The mean and standard error of each group of drug concentration (uM) and corresponding drug inhibition rate were fitted by Graph Prism software to obtain the IC50 of the drug.

[6] = system: Plasmodium falciparum 3D7; test: Test of plasmodium activity (SYBR-GREEN1); type: cell-based; settings: infected erythrocytes, 72 hours; read-out: Malaria (IC50/μM)
Method: Plasmodium falciparum 3D7 was cultured with […] medium mixed with 10% human O-type blood serum and 25 mM HEPES. The cultivation process was maintained in a carbon dioxide incubator under 5% carbon dioxide. In vitro drug testing experiments were performed on a 96-well plate. The test drug was dissolved in PBS and pre-diluted with complete medium. Infected erythrocytes were cultured in triplicate for 72 hours in 3-fold serial dilutions of drug. Then an equal amount of SYBR-GREEN1 was added to each well. The detection was then performed at 485 nm for excitation light and 538 nm for emitted light. […] ORIGIN 8.0 software was used to plot and fit.

[7] = system: anti-OVA IgM and IgG antibodies; test: Combined adjuvant effect of FPPS inhibitor and TLR agonist, OVA titer; type: in vivo, mice; settings: soles of right feet
Method: Two compounds, TH-Z93 and Imiquimod, were formulated at a concentration of 4 mg/ml, and OVA antigen at a concentration of 10 mg/ml. When used alone, 5 μl of TH-Z93 or imiquimod was added as an adjuvant and mixed with 10 μl of antigen and 5 μl of PBS. When two adjuvants were used in combination, each of the adjuvants were added in an amount of 5 μl and mixed with 10 μl of antigen, and the total volumes were 20 μl. The mice used are of C57B/6 strain. An equal volume of PBS without any adjuvant was used for mice in the control group. The mice was injected at the soles of the right feet. On Day 7 and Day 14 after immunization, blood was taken from the mice's orbits, and 100 μl was taken for each mouse. The obtained blood was left at 4° C. overnight, and then the serum was separated. The titers of anti-OVA IgM and IgG antibodies in the serum were determined.

Chain of HsGGPPS (humanized geranylgeranyl pyrophosphate synthase) (O95749 whole entry, looked up): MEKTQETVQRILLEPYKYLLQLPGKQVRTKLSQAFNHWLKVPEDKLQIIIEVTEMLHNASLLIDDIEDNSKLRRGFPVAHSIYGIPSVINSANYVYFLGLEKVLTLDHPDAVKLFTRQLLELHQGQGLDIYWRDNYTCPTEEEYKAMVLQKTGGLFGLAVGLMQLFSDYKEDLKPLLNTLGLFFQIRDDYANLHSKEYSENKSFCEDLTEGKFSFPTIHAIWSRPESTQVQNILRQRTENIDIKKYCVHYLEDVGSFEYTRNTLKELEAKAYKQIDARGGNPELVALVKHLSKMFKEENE

With `CCCCCCOc1cccc(CC(P(=O)(O)O)P(=O)(O)O)c1` [TH-Z144, (2-(3-(hexyloxy)phenyl)ethane-1,1-diyl)bisphosphonic acid] the “IC50 (inhibition of GGPPS)” value [1] was “effectively inhibit the activity of GGPPS”, the pIC50 ([1]; read-out: IC50 (inhibition of GGPPS)) was 5.56 and the “IgM and IgG antibody titers vs PBS control” value [2] was “significantly higher titers”.
Compound `CCCCCOc1ccc2c(c1)ncn2CC(O)(P(=O)(O)O)P(=O)(O)O` [TH-Z151] has an IC50 [3] of 0.46 µM, an IC50 ([4]; Example 15 table, read-out: HsFPPS (IC50/μM)) of 0.12 µM and a pIC50 ([4]; TH-Z80 series, DMAPP and IPP substrates, pH 7.4, read-out: IC50 for inhibition of FPPS) of 6.92. For the same compound, the pIC50 [5] was 3.39 and the IC50 [6] was 1.25 µM.
With `CC(C)Cn1cnc2c(N)nc3ccccc3c21` [imiquimod, reference compound] the “antibody titers vs PBS control, adjuvant used alone” value [7] was “significant high titers”.
